What was measured:
human EAA2a receptor [1] = target: T1, human EAA2a receptor (Homo sapiens, UniProt Q16478); assay: [3H]-kainate binding assay (Scatchard analysis and displacement) on membranes of transfected COS-1 cells; conditions: for rank order of potency in displacement of [3H]-labelled kainate binding: FIG. 6
T1 construct: This modification permitted the full length cDNA insert to be released as a 3.7 kb NotI/NotI fragment; expressed in transfected cells; host or cells: COS-1 (ATCC CRL 1650), transient, plasmid pcDNA1/humEAA2a; membranes
T1 sequence (Q16478 15-980): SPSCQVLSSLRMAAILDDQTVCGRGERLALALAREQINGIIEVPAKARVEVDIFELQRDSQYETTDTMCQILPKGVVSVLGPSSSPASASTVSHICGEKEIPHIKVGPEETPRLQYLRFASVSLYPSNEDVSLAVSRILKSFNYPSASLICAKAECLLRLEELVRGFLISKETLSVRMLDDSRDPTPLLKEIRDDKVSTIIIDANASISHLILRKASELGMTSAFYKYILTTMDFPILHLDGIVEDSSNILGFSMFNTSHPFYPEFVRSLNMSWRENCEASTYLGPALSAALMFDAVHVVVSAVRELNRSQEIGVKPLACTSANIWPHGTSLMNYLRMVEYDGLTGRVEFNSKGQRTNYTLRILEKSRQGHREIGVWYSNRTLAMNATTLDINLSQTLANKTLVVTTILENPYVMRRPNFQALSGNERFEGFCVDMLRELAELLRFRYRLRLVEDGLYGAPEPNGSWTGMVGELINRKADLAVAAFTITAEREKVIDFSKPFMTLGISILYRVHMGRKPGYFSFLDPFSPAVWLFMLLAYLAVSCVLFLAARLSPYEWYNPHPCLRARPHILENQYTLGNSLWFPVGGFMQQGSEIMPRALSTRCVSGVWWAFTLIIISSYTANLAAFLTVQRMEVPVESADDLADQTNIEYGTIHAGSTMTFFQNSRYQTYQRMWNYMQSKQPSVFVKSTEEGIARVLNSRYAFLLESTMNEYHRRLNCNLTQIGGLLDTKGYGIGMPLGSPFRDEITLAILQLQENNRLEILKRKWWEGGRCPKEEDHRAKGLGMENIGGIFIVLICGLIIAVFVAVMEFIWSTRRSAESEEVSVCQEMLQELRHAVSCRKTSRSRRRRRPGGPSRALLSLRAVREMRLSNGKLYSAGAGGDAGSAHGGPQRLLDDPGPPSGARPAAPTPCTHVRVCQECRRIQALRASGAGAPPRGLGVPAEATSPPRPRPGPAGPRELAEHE
Procedure: (§1) Transfected cells in the frozen state were resuspended in ice-cold distilled water using a hand homogenizer and centrifuged for 20 minutes at 50,000 g. The supernatant was discarded and the membrane pellet stored frozen at -70° C.
(§2) COS cell membrane pellets were suspended in ice cold 50 mM Tris-HCl (pH 7.55, 5C) and placed inside Spectrapor 7 (EDTA-treated, sulfur-fee) dialysis tubing. The suspension was placed in 4 liters of ice cold 50 mM Tris-HCl (pH 7.55, 5C) and dialyzed for 16-24 hours at 5C in order to remove endogenous glutamate that would compete for binding. The tissue suspension was recovered from the tubing along with a small volume of buffer used to rinse the tubing. This resultant membrane preparation was used as tissue source for binding experiments described below. Proteins were determined using the Pierce Reagent with BSA as standard.
Binding assays were then performed, using an amount of COS-derived membrane equivalent to from 25-100 ug as judged by protein determination and selected radiolabelled ligand. In particular, glutamate binding assays entailed formation of an incubation mixture consisting of 25-100 ug of tissue protein, and [3.4-3H]L-glutamic acid (47.3 Ci/mmole, 10 nM final) in 50 mM Tris-HCl (pH 7.55, 5C) in 1 ml final volume. Non-specific binding was in the presence of 1 mM L-glutamate. Samples were incubated on ice for 60 minutes in plastic minivials. Bound and free ligand were separated by centrifugation for 10 minutes at 50,000 g (4° C.). Tissue pellets were washed superficially with 2×6 ml of ice cold incubation buffer. Pellets were solubilized and counted in 5 ml of Beckman Ready Protein Scintillation cocktail.
For kainate binding assays, incubation mixtures consisted of 25-100 μg tissue protein and [vinylidene-3H] kainic acid (58 Ci/mmole, 5 nM final) in the cold incubation buffer, 1 ml final volume. Non-specific binding was in the presence of 1 mM L-glutamate. Samples were incubated as for the glutamate binding assays, and bound and free ligand were separated by rapid filtration using a Brandel cell harvester and GF/B filters pro-soaked in ice-cold 0.3% polyethyleneimine. Filters were washed twice in 6 ml of the cold incubation buffer, then placed in scintillation vials with 5 ml of Beckman Ready-Safe scintillation cocktail for counting.

human EAA2a receptor [2] = target: T1, human EAA2a receptor; assay: [3H]-glutamate binding assay on membranes of transfected COS-1 cells; conditions: [3H]-glutamate at 10 nM; non-specific binding with 1 mM L-glutamate
Procedure: as §1, §2
Binding assays were then performed, using an amount of COS-derived membrane equivalent to from 25-100 ug as judged by protein determination and selected radiolabelled ligand. In particular, glutamate binding assays entailed formation of an incubation mixture consisting of 25-100 ug of tissue protein, and [3.4-3H]L-glutamic acid (47.3 Ci/mmole, 10 nM final) in 50 mM Tris-HCl (pH 7.55, 5C) in 1 ml final volume. […] Pellets were solubilized and counted in 5 ml of Beckman Ready Protein Scintillation cocktail.

Structure (SMILES) | rank order of potency in displacement of [3H]-labelled kainate binding (human EAA2a receptor [1]) | further results
N[C@@]1(C(=O)O)CC[C@@H](C(=O)O)C1 [1S,3R-ACPD] |  | displacement of kainate (human EAA2a receptor [1]; concentrations up to 100 uM): No displacement
N#Cc1cc2[nH]c(=O)c(=O)[nH]c2cc1[N+](=O)[O-] [CNQX] | kainate>domoate>quisqualate>glutamate>DNQX>dihydrokainate>CNQX>AMPA | 
O=c1[nH]c2cc([N+](=O)[O-])c([N+](=O)[O-])cc2[nH]c1=O [DNQX] | kainate>domoate>quisqualate>glutamate>DNQX>dihydrokainate>CNQX>AMPA | 
CC(C)[C@H]1CN[C@H](C(=O)O)[C@H]1CC(=O)O [dihydrokainate] | kainate>domoate>quisqualate>glutamate>DNQX>dihydrokainate>CNQX>AMPA | 
C/C(=C/C=C/[C@@H](C)C(=O)O)[C@H]1CN[C@H](C(=O)O)[C@H]1CC(=O)O [domoate] | kainate>domoate>quisqualate>glutamate>DNQX>dihydrokainate>CNQX>AMPA | 
N[C@@H](CCC(=O)O)C(=O)O [glutamate, L-glutamic acid] | kainate>domoate>quisqualate>glutamate>DNQX>dihydrokainate>CNQX>AMPA | specific binding of labelled ligand (human EAA2a receptor [2]): specific
C=C(C)[C@H]1CN[C@H](C(=O)O)[C@H]1CC(=O)O [kainate, kainic acid] | kainate>domoate>quisqualate>glutamate>DNQX>dihydrokainate>CNQX>AMPA | Kd (human EAA2a receptor [1]): 2.9 nM; maximum binding (Bmax) (human EAA2a receptor [1]; Scatchard analysis of [3H]-kainate binding): 691 fmol/mg protein; specific binding of labelled ligand (human EAA2a receptor [1]; [3H]-kainate at 5 nM, non-specific binding with 1 mM L-glutamate): specific; kainate binding affinity (in words) (human EAA2a receptor [1]; nanomolar range): high affinity
N[C@@H](Cn1oc(=O)[nH]c1=O)C(=O)O [quisqualate] | kainate>domoate>quisqualate>glutamate>DNQX>dihydrokainate>CNQX>AMPA | 
